Data as given in US20240277873A1, “ULTRABRIGHT […] PROBES FOR DETECTION AND IMAGING” (Nanyang Technological University, priority 2021, published 2024).
Residues, ends and D or L forms follow the SMILES beside them. *: point of attachment. X1 = COC(=O)/C=C/c1ccc(C2(OC)OOC23C2CC4CC(C2)CC3C4)cc1OCc1ccc(N*)cc1

How the values were obtained:
[1] = Chemiluminescence and fluorescence changes of probes toward O2•- (KO2): response, selectivity, LOD
Experimental: The chemiluminescence and fluorescence changes of BOPDSu, BTPDSu, MBPDSu and MPDSu (20 μM) were recorded at different concentrations of RONS (40 μM) and other metal ions (100 μM). BOPDSu, BTPDSu, MBPDSu and MPDSu (20 μM) in phosphate buffered saline (PBS) buffer were treated in the presence of different RONS (40 μM), and metal ions (Mg^2+, Ca^2+ or Fe^2+, 100 μM) at 37° C.
The chemiluminescence signals were recorded at different concentrations of KO2 (0, 50, 100, 250, 500 and 1000 nM). Then, the limit of detection (LOD) of BOPDSu, BTPDSu, MBPDSu and MPDSu were calculated by chemiluminescence intensities based on the equation: LOD=3σ/k, where σ is the standard deviation of emission intensity of blank, and k is the slope of plot of emission intensities.

[2] = Chemiluminescence kinetic studies (half-lives, CL emission) of caged probes in the presence of O2•-; format: physicochemical; details: for CL Emission: caged probe after activation
Experimental: FIG. […]
[…] The chemiluminescent intensities were plotted as a function of time.
[…] The chemiluminescence signal was recorded by the microplate reader to calculate half-lives of BTPDSu at different pHs.

[3] = Chemiluminescence quantum yield in the presence of O2•-; format: physicochemical; details: probe 20 μM, O2•- 100 μM, PBS (10 mM, pH 7.4, 10% DMSO), 37° C.
Experimental: The chemiluminescence QYs of BOPDSu, BTPDSu, MBPDSu, and MPDSu (20 μM) were measured in the presence of O2^•- (100 μM) in PBS (10 mM, pH 7.4, 10% DMSO) at 37° C. The fluorescence QYs were determined by using Rhodamine B as a standard dye (QY 36%) in PBS (10 mM, pH 7.4) (X. Zhen et al., ACS Nano 2016, 10, 6400-6409). The fluorescence QY of AMPD was obtained from the literature (O. Green et al., ACS Cent. Sci. 2017, 3, 349-358).

[4] = Stability of BTPDSu at different pHs (UV spectra); format: physicochemical; details: 20 μM, pH 5-9 buffers with 10% DMSO, 2 h, 37° C.
Experimental: BTPDSu and ABTPD (20 μM) were stored at different pHs (pH 5, 6, 7, 8 and 9) containing 10% DMSO for 2 h. Then, UV spectra of BTPDSu and fluorescence spectra of ABTPD were measured at different pHs.

[5] = obtained from the literature (ACS Cent. Sci. 2017, 3, 349-358); cited from earlier work
[6] = Half-life and CL emission of uncaged BTPD in PBS; format: physicochemical; details: in PBS (10% DMSO) at 37° C.
Experimental: FIG. 13 depicts the half-lives of BTPDSu (20 μM) and BTPD (20 μM) in pure DMSO upon addition of excess O2^•- (100 μM) and in 10 mM PBS (10% DMSO, pH 7.4) at 37° C., respectively.

neutrophils = experiment: In vitro cell chemiluminescent imaging; format: cell-based; details: probe 10 μM
Experimental: 3T3 cells and immune cells (neutrophils, DC cells, T-cells and macrophage) (10^4 cells) were seeded into confocal cell culture dishes (dia. 15 mm) and incubated for 24 h. […] After incubation, the medium was removed, and the cells were washed thrice. Chemiluminescence imaging of the cells were recorded on LX71 inverted microscope (Olympus), which was equipped with infinity 3-1 (Lumenera) CCD camera. During imaging, the excitation light was blocked and the images were recorded under an open filter, with an acquisition time of 60 s.

[7] = Blood test: chemiluminescence after incubation in healthy mouse blood; details: 20 μM, 30 min, 100 μL blood
Experimental: BTPDNe (20 μM) and MPDNe (20 μM) were incubated for 30 min in healthy mouse blood (100 μL), respectively. Chemiluminescence intensities were measured by IVIS system bioluminescence with an acquisition time of 60 s.

NE = biological target: T1, NE (Homo sapiens, UniProt P08246); experiment: Chemiluminescence and fluorescence changes of BTPDNe and MPDNe in the presence of NE (response, selectivity, LOD, half-life); format: biochemical
T1 sequence (P08246 30-267): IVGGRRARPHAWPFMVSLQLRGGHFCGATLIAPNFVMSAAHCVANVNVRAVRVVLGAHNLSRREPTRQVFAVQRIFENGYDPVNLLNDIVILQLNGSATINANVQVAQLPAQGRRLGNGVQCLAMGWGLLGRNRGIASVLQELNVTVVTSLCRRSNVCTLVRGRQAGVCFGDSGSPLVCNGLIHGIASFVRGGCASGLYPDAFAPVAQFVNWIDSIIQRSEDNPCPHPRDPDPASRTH
Experimental: Chemiluminescence and fluorescence changes of BTPDNe (20 μM) were determined in the presence of NE (0.1 U/ml), other different enzymes (˜0.1 U/mL, APN, ALP, Cas-3, cat B, GGT, β-gal and NTR) in 50 mM Tris, 1 M NaCl, 0.05% (w/v) Brij-35, pH 7.5 at 37° C. after 30 min incubation.
Chemiluminescence and fluorescence changes of BTPDNe and MPDNe (20 μM) in the presence of NE (0.1 U/mL), or other different enzymes (˜0.1 U/mL, APN, ALP, Cas-3, Cat B, GGT, β-gal, NTR, CatG and PR3) were tested after 30 min incubation in 50 mM Tris, 1 M NaCl, 0.05% (w/v) Brij-35, pH 7.5 at 37° C.
To determine the LOD for NE enzyme detection, the chemiluminescence of BTPDNe was recorded in 50 mM Tris, 1 M NaCl, 0.05% (w/v) Brij-35, pH 7.5 at 37° C. with different concentrations of NE (0, 0.05, 0.1, 0.5, 1, and 2 U/ml) for 30 min incubation. Then, initial reaction velocity was calculated.

LPS-treated mice = experiment: Real-time chemiluminescence imaging in LPS-induced peritonitis model; format: in vivo; details: LPS-treated mice
Experimental: The model was induced by intraperitoneal injection of LPS (15 ng) in 100 μL of PBS or PBS only as a control. Probe BTPDNe (40 μM·Kg^−1) or MPDNe (40 μM·Kg^−1) in PBS (10 mM, pH 7.4) containing 10% DMSO was intraperitoneally injected in mice. Then, chemiluminescent signals at different post-injection timepoints (0, 5, 10, 20, 45 and 60 min) were recorded using IVIS system bioluminescence with acquiring time of 120 s. After 3 h, the peritoneum was flushed with PBS (5 mL)+EDTA (5 mM). After erythrocyte lysis, neutrophils from C57Bl/6 mice were stained with a PE-labeled CD. After treatment with LPS for 3 h, CD11c antibody and an APC-labeled Ly6G antibody were added to the neutrophils, and the neutrophils were analyzed for double-positive events using flow cytometry (BD Biosciences). Data analysis was performed using Flowjo V10. Neutrophils were gated as CD45+CD11b+Ly6G+cells after the exclusion of doublets.
Fluorescence and chemiluminescence in vivo imaging of the probes were measured by an IVIS spectrum imaging system. Chemiluminescence imaging of the cells was recorded on LX71 inverted microscope. Tissue slices were cut by Leica, Germany slicer and imaged by a Nikon ECLIPSE 80i microscope. The images of tissue sections and cells were recorded with a LSM800 confocal laser scanning microscope. The white light was provided by 150 W LED High Bay Thermo Light.

Compound: benzothiazole-phenoxyl-dioxetane [BTPDSu]
- LOD against O2•- ([1]; KO2 0-1000 nM, PBS (10 mM, pH 7.4, 10% DMSO), 37° C., LOD=3σ/k): 6.8 nM
- chemiluminescence intensity increase after addition of O2•- ([1]; probe 20 μM, O2•- 40 μM for 10 s, PBS pH 7.4, 37° C., at 480 / 520 / 580 / 540 nm): 2960 times
- fluorescent signal enhancement upon cleavage by O2•- ([1]; probe 20 μM, PBS (10 mM, pH 7.4, 10% DMSO), 37° C., at ~486 / 532 / 582 / 542 nm): 42.1 folds
- chemiluminescence signal after 4 h incubation with O2•- ([2]; BTPDSu 100 μM, O2•- 4 eq., PBS (10 mM, pH 7.4, 10% DMSO), 37° C.): still observable by naked eye
- CL Emission ([2]; in PBS (10% DMSO) at 37° C.): 520 nm
- CL Emission ([2]; in pure DMSO): 485 nm
- ΦCl, chemiluminescence QY [3]: 0.137 einsteins/mol
- stability: UV spectra at different pHs [4]: no obvious changes

Compound: COC(=O)/C=C/c1ccc(C(=O)OC)cc1O [AMPD]
- ΦFl, fluorescence QY of activated probe [5]: 3.1%

Compound: COC1(c2ccc(-c3nc4ccccc4s3)c(O)c2)OOC12C1CC3CC(C1)CC2C3 (centres unmarked) [BTPD]
- CL Emission [6]: ~515 nm

Compound: COC(=O)/C=C/c1ccc(C2(OC)OOC23C2CC4CC(C2)CC3C4)cc1OCc1ccc(NC(=O)[C@@H](NC(=O)[C@@H]2CCCN2C(=O)[C@H](C)NC(=O)[C@H](C)NC(C)=O)C(C)C)cc1 (some centres unmarked) [MPDNe, reference compound] (Ac-AAPV-X1)
- activated chemiluminescence signal in neutrophils, 30 min (neutrophils; incubation 30 min): 56.4 pixels
- activated chemiluminescence signal in neutrophils, 1 h (neutrophils; incubation 1 h): 16.2 pixels
- chemiluminescence intensities after incubation with healthy mouse blood [7]: Negligible
- selectivity towards NE over other enzymes (NE; APN, ALP, Cas-3, cat B, GGT, furin, β-gal, NTR, PR3, CatG (~0.1 U/mL)): high selectivity
- chemiluminescence enhancement after incubation with NE (NE; probe 20 μM, NE 0.1 U/mL, 50 mM Tris, 1 M NaCl, 0.05% Brij-35, pH 7.5, 37° C., 30 min, BTPDNe at 515 nm, MPDNe at 550 nm): 65.1 fold
- chemiluminescent signals after 60 min (LPS-treated mice; 60 min post injection): not
- maximum chemiluminescent signal enhancement in peritoneum relative to negative control group (LPS-treated mice; 3 h post LPS, i.p. probe 40 μM·kg^−1): 8.5 fold
